Assay results reported in article PMC7435928, “Preclinical Evaluation of NHS-Activated Gold Nanoparticles Functionalized with Bombesin or Neurotensin-Like Peptides for Targeting Colon and Prostate Tumours” (Molecules, 2020).
Blank lines part the entries; values can stand above or below the compound they belong to. Peptide text beside a SMILES is read from it. * marks the point of attachment. DOTA = O=C(O)CN1CCN(CC(=O)O)CCN(CC(=O)*)CCN(CC(=O)O)CC1

Experiments:
[1] = tested on: human prostate carcinoma DU-145 cells; test: MTS reduction test (cytotoxicity); settings: free peptides 1–4 nmol/mL, 48 h, triplicate
Description: (§4) The MTS reduction test was used to evaluate the number of metabolically active cells in culture, under various experimental conditions.
(§5) Briefly, cells were cultivated in 96-well plates (3 × 10^4 CRL9855 cells/mL, 10 × 10^4 HT-29 cells/mL and 5 × 10^4 DU-145 cells/mL) in a total volume of 100 μL. Adherent cells were left for 24 h to adhere to the culture well. Thereafter, NPs and peptides were added at various concentrations and cells were cultivated for 48 h. Non-treated cells were considered as control (CTRL). For background assessment culture medium, NPs and peptides were cultivated in absence of cells, considering that NPs might interfere with the spectrophotometric measurement. All samples were cultivated in triplicate. At the end of the incubation time, 20 μL of MTS reagent were added and samples were cultivated for another 1–3 h until the reaction color was developed. The OD at 490 nm was measured in each sample using a Tecan Sunrise ELISA reader with Magellan universal reader control and data analysis software (Tecan Group Ltd., Mannedorf, Switzerland). Final OD in cellular samples was calculated by subtracting the OD of the corresponding background samples.

[2] = tested on: human colon carcinoma HT-29 cells; test: MTS reduction test (cytotoxicity); settings: free peptides 1–4 nmol/mL, 48 h, triplicate
Description: as §4, §5

[3] = tested on: human proliferating CRL9855 monocytes; test: MTS reduction test (cytotoxicity); settings: free peptides 1–4 nmol/mL, 48 h, triplicate
Description: as §4, §5

[4] = molecular target: neurotensin NTRS1, NTRS2 and NTRS3 receptors; parameters: method as in printed for the value; settings: target receptors as in Table 3 (NTRS1, NTRS2; SR 14294 also NTRS3); not measured in this paper, ref not given; cited from earlier work
[5] = tested on: prostate tumour bearing mice; settings: 60 min p.i.; cited from earlier work
Description: (§1) Several tracers have been developed to target and facilitate the molecular imaging of colon or prostate cancer, such as: ^68Ga-NGR with over 2.7 ± 0.65% ID/g in colon tumour at 30 min p.i., [^18F]FDG with 2.5 ± 0.5% ID/g [^18F]FDG in colon tumours, [^18F]fluorocholine (FCH) with 7.9 ± 5% ID/g at 60 min p.i. in prostate tumour bearing mice. Compared to these, the values obtained for tumour uptake using the four studied nanotracers are between 2.53 ± 0.26% ID/g for ^68Ga-DOTA-NMN-AuNP to 9.82 ± 2.28% ID/g for ^68Ga-DOTA-PEG(4)-BBN(7-14)-AuNP in colon tumours and 2.79 ± 0.4% ...

in vivo [6] = test: in vivo; parameters: species or system mice; settings: male, NU/J athymic nude, mouse, 3.81 MBq, total radioactivity, Biodistribution
Description: (§2) All experiments were conducted according to the guidelines of EU Directive 2010/63 approved by The Romanian National Sanitary Veterinary and Food Safety Authority (NSVFSA, approval no. 442/25.02.2019). Athymic nude male mice (NU/J, 8–10 weeks old) were obtained from The Jackson Laboratory (Bar Harbor, ME, USA). Animals were housed in ventilated cages with a 12-h light-dark cycle and receive food and water ad libitum. Colon/prostate tumours were induced 7–10 days prior the experiments by a subcutaneous injection of 1 × 10^6 HT-29/DU-145 cancer cells. All injected animals were monitored daily until an ideal size of tumour for biodistribution was reached (60–100 mm^3). 3.81 ± 0.51 MBq of ^68Ga-labelled tracers were retro-orbital injected into the ophthalmic venous sinus after intraperitoneal anesthesia with 0.1 mL ketamine/xylazine/acepromazine cocktail: 7.5 mg/mL ketamine (Narkamon Bio, Bioveta, Cluj-Napoca, Romania), 1.5 mg/mL xylazine (Narcoxyl 2, MSD Animal Health, Madison, NJ, USA) and 0.25 mg/mL acepromazine (Sedam, SC Pasteur Filiala Filipesti SRL, Filipestii de Padure, Romania). All animals were sacrificed at 30 min p.i. and the organs were weighted and measured in a dose calibrator (Biodex Medical Systems Inc., Shirley, NY, USA). The biodistribution was calculated as percent of injected dose per gram of organ (% ID/g) ± standard deviation (SD, n = 4 for each injected tracer).
(§3) All the data were expressed as means ± standard deviation (n = 4). Comparison of results among the groups (% ID/g vs. tracers, % ID/g vs. tracers and organs, % ID/g vs. tracers and tumoral cells), was carried out by one-way analysis of variance (ANOVA) and Tukey post-hoc analysis using SPSS v26 (IBM, Armonk, NY, USA) The results were considered significant for a p-value less than 0.05.

in vivo [7] = test: in vivo; parameters: species or system mice; settings: male, NU/J athymic nude, mouse, 3.81 MBq, total radioactivity, Biodistribution; remark: listed apart in the source
Description: as §2, §3

[8] = Dynamic light scattering of peptide-functionalized gold nanoparticles; assay type: physicochemical; settings: cold peptide-functionalized AuNPs, 25 °C; for Hydrodynamic Diameter: DLS, Nano ZS, 633 nm, 90°; for Zeta Potential: DLS/zetasizer
From the text: The reaction between DOTA-peptides and NHS-activated PEG-AuNPs was monitored by detecting changes in nanoparticles size as a peptide layer is formed around nanoparticles. The initial hydrodynamic diameter of bare PEG-AuNPs was 42.56 nm, and after functionalization increased to approximately 73 nm (Figure 1). The electric potential at the boundary of the double layer (counter ions and Stern layer) of nanoparticles, also known as zeta potential is higher than −44 mV. Thus, the peptide-functionalized nanoparticles have sufficient repulsive force to anticipate a good physical stability.
The size distribution and zeta potential of cold peptide functionalized-gold nanoparticles were measured using a Nano ZS zetasizer system (Malvern Instruments, Malvern, UK). Measurement parameters were as follows: a laser wavelength of 633 nm (He-Ne), measurement angle of 90°, measurement temperature of 25 °C, and refractive index of medium n = 1.330.

colon tumour = settings: in vivo; cited from earlier work
Description: as §1

HT-29 colon cancer cells = test: Uptake and retention, rotating radioimmunoassay (LigandTracer Yellow); assay type: cell-based, human; settings: HT-29 cells, 2–3 nmol peptide, real-time signal during incubation
Description: The binding kinetic (uptake and retention) of the ^68Ga-labelled peptides and peptide-functionalized gold nanoparticles we investigated using rotating radioimmunoassay. 2–3 nmol of each peptide labelled with ^68Ga was incubated on DU-145 prostate and HT-29 colon cancer cells. After uptake measurement, the radioactive medium was removed and the cells were washed with fresh DMEM-F12 medium. The cell retention is measured after this process, during each rotation of the Petri dish support the detector is measuring only the signal coming from the tracers bound to cells. The results are reported as measured signal during the time of analysis (where t = 0 min is the time of incubation), as illustrated in Figure 3. […]
The retention level is illustrated after the indicator arrows and reflects the percent of activity retained by the cells from the maximum counted during uptake, after hot medium removal and cells washing step. […]
Cells were maintained in culture according to the protocol provided by the depositor. […] Cells at passage 6–9 and were counted before seeding for experimentation by optical microscopy using a Burker-Turk counting chamber, and cell viability was assessed by the trypan blue exclusion test. […]

Compound: CSCC[C@H](NC(=O)[C@H](Cc1ccccc1)NC(=O)[C@H](Cc1c[nH]cn1)NC(=O)CNC(=O)[C@@H](NC(=O)[C@H](C)NC(=O)[C@H](Cc1c[nH]c2ccccc12)NC(=O)[C@H](CC(C)C)NC(=O)[C@H](CC(N)=O)NC(=O)CNC(=O)CN1CCN(CC(=O)O)CCN(CC(=O)O)CCN(CC(=O)O)CC1)[C@@H](C)O)C(N)=O [DOTA-NMB]
- Effect on MTS reduction [1]: do not alter MTS reduction
- Effect on MTS reduction [2]: do not alter MTS reduction
- Effect on MTS reduction [3]: do not alter MTS reduction

Compound: Cc1ccc(S(=O)(=O)Nc2ccc3c(c2)c(C(=O)C(F)(F)F)cn3CC(=O)N[C@@H](CC(C)C)C(=O)O)cc1 [NTRC 824]
- Kd [4]: 38 nM

Compound: COc1cccc(OC)c1-c1cc(C(=O)NC2(C(=O)O)C3CC4CC(C3)CC2C4)nn1-c1ccc(C(=O)N(C)CCCN(C)C)cc1C(C)C (centres unmarked) [SR 14294]
- Kd [4]: 10 nM

Compound: COc1cccc(OC)c1-c1cc(C(=O)NC2(C(=O)O)C3CC4CC(C3)CC2C4)nn1-c1ccnc2cc(Cl)ccc12 (centres unmarked) [SR 48692]
- Kd [4]: 15 nM

Compound: C[N+](C)(CF)CCO [[^18F]fluorocholine (FCH), [^18F]fluorocholine]
- Tumour uptake [5]: 7.9 ± 5 % ID/g

- tissue uptake at 0.5 h (in vivo [6]; Bone): 0.1 ± 0.07 %ID/g
- tissue uptake at 0.5 h (in vivo [6]; Tumour (colon)): 1.73 ± 0.08 %ID/g
- tissue uptake at 0.5 h (in vivo [7]; Pancreas): 1.36 ± 0.07 %ID/g
- tissue uptake at 0.5 h (in vivo [7]; Tumour (prostate)): 2.54 ± 0.42 %ID/g
Compound: CSCC[C@H](NC(=O)[C@H](Cc1ccccc1)NC(=O)[C@H](Cc1c[nH]cn1)NC(=O)CNC(=O)[C@@H](NC(=O)[C@H](C)NC(=O)[C@H](Cc1c[nH]c2ccccc12)NC(=O)[C@H](CC(C)C)NC(=O)[C@H](CC(N)=O)NC(=O)CNC(=O)CN1CCN(CC(=O)O)CCN(CC(=O)O)CCN(CC(=O)O)CC1)[C@@H](C)O)C(N)=O [^68Ga-DOTA-NMB, metal not drawn]

- tissue uptake at 0.5 h (in vivo [6]; Bone): 0.16 ± 0.02 %ID/g
- tissue uptake at 0.5 h (in vivo [6]; Brain): 0.04 ± 0.01 %ID/g
- tissue uptake at 0.5 h (in vivo [6]; Heart): 1 ± 0.42 %ID/g
- tissue uptake at 0.5 h (in vivo [6]; Kidneys): 21.1 ± 1.97 %ID/g
- tissue uptake at 0.5 h (in vivo [6]; Lungs): 2.37 ± 0.77 %ID/g
- tissue uptake at 0.5 h (in vivo [6]; Lymph Node): 0.39 ± 0.05 %ID/g
- tissue uptake at 0.5 h (in vivo [6]; Spleen): 0.35 ± 0.02 %ID/g
- tissue uptake at 0.5 h (in vivo [6]; Tumour (colon)): 2.02 ± 0.02 %ID/g
- tissue uptake at 0.5 h (in vivo [7]; Heart): 0.99 ± 0.26 %ID/g
- tissue uptake at 0.5 h (in vivo [7]; Kidneys): ~60 %ID/g
- tissue uptake at 0.5 h (in vivo [7]; Lungs): 2.37 ± 0.5 %ID/g
- tissue uptake at 0.5 h (in vivo [7]; Pancreas): 0.58 ± 0.02 %ID/g
- tissue uptake at 0.5 h (in vivo [7]; Tumour (prostate)): 1.77 ± 0.5 %ID/g
Compound: CC[C@H](C)[C@H](NC(=O)[C@H](Cc1ccc(O)cc1)NC(=O)[C@@H]1CCCN1C(=O)[C@@H](NC(=O)[C@H](CCCCN)NC(=O)CN1CCN(CC(=O)O)CCN(CC(=O)O)CCN(CC(=O)O)CC1)[C@@H](C)CC)C(=O)N[C@@H](CC(C)C)C(=O)O [^68Ga-DOTA-NMN, metal not drawn] ({DOTA}-KIPYIL-OH; C-terminus assumed)

- tissue uptake at 0.5 h (in vivo [6]; Blood): 6.42 ± 0.27 %ID/g
- tissue uptake at 0.5 h (in vivo [6]; Bone): 0.75 ± 0.06 %ID/g
- tissue uptake at 0.5 h (in vivo [6]; Kidneys): 18.7 ± 0.67 %ID/g
- tissue uptake at 0.5 h (in vivo [6]; Lymph Node): 1.1 ± 0.45 %ID/g
- tissue uptake at 0.5 h (in vivo [6]; Tumour (colon)): 3.31 ± 0.76 %ID/g
- tissue uptake at 0.5 h (in vivo [7]; Blood): 6.48 ± 1.53 %ID/g
- tissue uptake at 0.5 h (in vivo [7]; Kidneys): 18 ± 3.78 %ID/g
- tissue uptake at 0.5 h (in vivo [7]; Tumour (prostate)): 3.78 ± 0.27 %ID/g
Compound: CSCC[C@H](NC(=O)[C@H](CC(C)C)NC(=O)[C@H](Cc1c[nH]cn1)NC(=O)CNC(=O)[C@@H](NC(=O)[C@H](C)NC(=O)[C@H](Cc1c[nH]c2ccccc12)NC(=O)[C@H](CCC(N)=O)NC(=O)CCOCCOCCOCCOCCNC(=O)CN1CCN(CC(=O)O)CCN(CC(=O)O)CCN(CC(=O)O)CC1)C(C)C)C(N)=O [^68Ga-DOTA-PEG(4)-BBN(7-14), metal not drawn]

Compound: DOTA-NMB-AuNP: cold DOTA-neuromedin B-functionalized gold nanoparticles
- Hydrodynamic Diameter [8]: 72.18 nm
- Zeta Potential [8]: −47.3 mV

Compound: DOTA-NMN-AuNP: cold DOTA-neuromedin N-functionalized gold nanoparticles
- Hydrodynamic Diameter [8]: 73.29 nm
- Zeta Potential [8]: −49.6 mV

Compound: DOTA-NT-AuNP: cold DOTA-neurotensin-functionalized gold nanoparticles
- Hydrodynamic Diameter [8]: 72.36 nm
- Zeta Potential [8]: −44.4 mV

Compound: [^18F]FDG
- Tumour uptake (colon tumour): 2.5 ± 0.5 % ID/g

Compound: ^68Ga-DOTA-NMB-AuNP: NHS-activated PEG-gold nanoparticles functionalized with ^68Ga-DOTA-Neuromedin B
- Uptake profile (HT-29 colon cancer cells): up and down trend

Compound: ^68Ga-DOTA-NT-AuNP: NHS-activated PEG-gold nanoparticles functionalized with ^68Ga-DOTA-NT
- Hydrodynamic Diameter [8]: 72.36 nm
